Measured values: US20150366962A1 (priority 2014, published 2015)

Test system: H5 (VN/04), H11 and H12 subtype HAs
Set-up: species or system mice
Settings: mouse, in vivo

| Structure (SMILES) | IgG subtype profile (IgG2a/IgG1) to H5 subtype HA | IgG titers reacting to H11 subtype versus unadjuvanted control | IgG titers reacting to H12 subtype versus unadjuvanted control | serum IgG reactivity to the H5 subtype HA (VN/04) versus no adjuvant |
| --- | --- | --- | --- | --- |
| CCCCCCCCC=CCCCCCCCC(=O)OCC(COP(=O)(O)OCCNC(=O)c1ccc(Cn2c(=O)[nH]c3c(N)nc(OCCOC)nc32)cc1)OC(=O)CCCCCCCC=CCCCCCCCC (centres unmarked) [Compound 1V270] | inducing IgG2a | significantly better than the unadjuvanted control | significantly better than the unadjuvanted control | significantly higher reactivity |
| Cn1c2ccccc2c2nc(SCC(=O)NC3CCCCC3)n(-c3ccccc3)c(=O)c21 [Compound 1Z105] | induced primarily IgG1 |  |  |  |
